# Where two headings read alike, the source gives them in different places.
# Assays:
# MES-SA cells [1] = test: MTT viability assay, MES-SA; assay type: cell-based, human; details: Homo sapiens, MES-SA; Table 2, value outside brackets; read-out: MES-SA (toxicity, Table 2)
# Text: (§1) MDCK II canine kidney cells, A431 epidermoid carcinoma cells, the human uterine sarcoma cell lines MES-SA and the doxorubicin selected MES-SA-Dx5 were obtained from ATCC (MDCK II: No. CRL-2936™, A431: No. CRL-1555™, MES-SA: No. CRL-1976™, MES-SA/Dx5: No. CRL-1977™). ABCB1 was expressed in A431 and MES-SA cells using lentiviral transduction. The human cervix carcinoma cell line KB-3-1 and the vinblastine selected KB-v1were kind gifts from Dr. Michael M. Gottesman, National Institutes of Health. The phenotype of the resistant cells was verified using cytotoxicity assays. MDCK-B1 and MDCK-MM were established by the Sleeping Beauty transposon-based gene delivery system. OVCAR-8 and NCI-ADRres cells (obtained from the Division of Cancer Treatment and Diagnosis (DCTD) Tumor Repository (National Cancer Institute, Frederick, MD, USA)) were cultivated in RPMI-1640 (Sigma Aldrich, Budapest, Hungary), and other cell lines were cultivated in Dulbecco’s Modified Eagle Medium (DMEM, Sigma Aldrich, Budapest, Hungary), supplemented with 10% fetal bovine serum, 5 mM glutamine, and 50 unit/mL penicillin and streptomycin (Life Technologies, Carlsbad, CA, USA). All cell lines were cultivated at 37 °C, 5% CO2.
# (§2) MTT viability assays were performed as described earlier with minor modifications. Briefly, cells were seeded into 96-well tissue culture plates (Sarstedt, Newton, NC, USA/Orange, Braine-l’Alleud, Belgium) at a density of 5000 cells/well and allowed to attach overnight. Test compounds were added to achieve the required final concentration in a final volume of 100 µL per well. After an incubation period of 72 h, the supernatant was removed and fresh medium containing the MTT reagent (0.083 mg/mL) was added. Incubation with MTT at 37 °C was terminated after 1 h by removing the supernatant and lysing the cells with 100 µL DMSO per well. Viability of the cells was measured spectrophotometrically based on the absorbance values at 540 nm using either a Perkin Elmer Victor X3 or an EnSpire microplate reader. Data were background corrected by subtraction of the signal obtained from unstained cell lysates and normalized to untreated cells. Curves were fitted by Prism software (GraphPad Software Inc., San Diego, CA, USA) using the sigmoidal dose-response model (comparing variable and fixed slopes). […] Significance was calculated using unpaired t-tests; results are given as *: p ≤ 0.05, **: p ≤ 0.01, ***: p ≤ 0.001, ****: p ≤ 0.0001.
# MES-SA/Dx5 cells [2] = test: MTT viability assay, MES-SA/Dx5; assay type: cell-based, human; details: for IC50: Homo sapiens, MES-SA/Dx5, read-out: MES-SA/Dx5 (toxicity, Table 2)
# Text: as §1, §2
# [3] = pKa by UV-visible spectrophotometric titrations; assay type: physicochemical; details: 0.2 M KCl (ionic strength), T = 25 °C, I = 0.2 M (KCl)
# MES-SA cells [4] = test: ROS determination with DCFDA, MES-SA; assay type: cell-based, human; details: 2 h
# Procedure: (§3) Measurements were performed as described earlier. Briefly, cells were harvested, washed with PBS, and incubated with 10 µM DCFDA in a water bath shaker at 37 °C for 30 min in a density of 3 × 10^6 cells/mL. After washing with PBS, cells were seeded to 96-well plates in PBS in a density of 2 × 10^4 cells/well. Following the measurement of the basal fluorescence, test compounds were added in different concentrations and the fluorescence of the samples was followed at time intervals of 10 min. DCFDA solution in buffer was used as a cell free control to test for interaction of the test compounds with DCFDA. Data were analyzed as fold change of fluorescence compared to basal levels and untreated cells. Significance was calculated using unpaired t-tests; results are given as *: p ≤ 0.05, **: p ≤ 0.01, ***: p ≤ 0.001, ****: p ≤ 0.0001.
# (§4) Table S3: Characterization of intracellular ROS production with the DCFDA assay for P -gp negative MES-SA and P-gp positive MES-SA/Dx5 cells. Fold changes in fluorescence are shown after a 2 h with the investigated 8 -hydroxyquinoline ligands. Data S-refer to Figure 7 and allow […]
# (§5) concentration range from 6.25µ M to 50µ M. Fold change of fluorescence obtained in the presence of 5 mM NAC is given in brackets.
# MES-SA/Dx5 cells [5] = test: ROS determination with DCFDA, MES-SA/Dx5; assay type: cell-based, human; details: 2 h
# Procedure: as §3, §4, §5
# [6] = Table 2, value outside brackets
# [7] = Table 2, value in brackets (Tariquidar as in Table 1)
# [8] = group named in the cell (NmorpholiniumH+, NpiperidiniumH+, NbenzylamineH2+), read-out: pKa (additional)
# [9] = 6.25 µM, presence of 5 mM NAC (brackets)
# [10] = 12.5 µM, presence of 5 mM NAC (brackets)
# [11] = 25 µM, presence of 5 mM NAC (brackets)
# [12] = 50 µM, presence of 5 mM NAC (brackets)
# [13] = MES-SA/Dx5, 6.25 µM, presence of 5 mM NAC (brackets)
# [14] = MES-SA/Dx5, 12.5 µM, presence of 5 mM NAC (brackets)
# [15] = MES-SA/Dx5, 25 µM, presence of 5 mM NAC (brackets)
# [16] = MES-SA/Dx5, 50 µM, presence of 5 mM NAC (brackets)
"pKa [3, 8]",pKa ([3]; read-out: pKa (NquinoliniumH+)),pKa ([3]; read-out: pKa (OH)),Compound,IC50 (MES-SA cells [1]) [nM],IC50 (MES-SA/Dx5 cells [2]; [6]) [nM],SR MES-SA/Dx5 (Table 2) (MES-SA/Dx5 cells [2]; [7]),SR MES-SA/Dx5 (Table 2) (MES-SA/Dx5 cells [2]; [6]),Fold change in fluorescence (DCFDA) (MES-SA cells [4]; 6.25 µM),Fold change in fluorescence (DCFDA) (MES-SA cells [4]; [9]),Fold change in fluorescence (DCFDA) (MES-SA cells [4]; 12.5 µM),Fold change in fluorescence (DCFDA) (MES-SA cells [4]; [10]),Fold change in fluorescence (DCFDA) (MES-SA cells [4]; 25 µM),Fold change in fluorescence (DCFDA) (MES-SA cells [4]; [11]),Fold change in fluorescence (DCFDA) (MES-SA cells [4]; 50 µM),Fold change in fluorescence (DCFDA) (MES-SA cells [4]; [12]),"Fold change in fluorescence (DCFDA) (MES-SA/Dx5 cells [5]; MES-SA/Dx5, 6.25 µM)",Fold change in fluorescence (DCFDA) (MES-SA/Dx5 cells [5]; [13]),"Fold change in fluorescence (DCFDA) (MES-SA/Dx5 cells [5]; MES-SA/Dx5, 12.5 µM)",Fold change in fluorescence (DCFDA) (MES-SA/Dx5 cells [5]; [14]),Fold change in fluorescence (DCFDA) (MES-SA/Dx5 cells [5]; [15]),further results
5.83 ± 0.02,< 2,9.68 ± 0.03,Oc1c(CN2CCOCC2)cc(Cl)c2cccnc12 [Compound 5-Cl-Q-2],1400 ± 240,640 ± 30,1.39,2.19,1.896± 0.32,1.600± 0.55,2.226± 0.39,1.263± 0.62,2.086± 0.66,1.309± 0.51,2.609± 0.77,1.178± 0.40,2.594± 0.87,1.246± 0.47,3.214± 0.86,1.651± 0.73,1.265± 0.27,"Fold change in fluorescence (DCFDA) (MES-SA/Dx5 cells [5]; MES-SA/Dx5, 50 µM): 4.697± 3.24; Fold change in fluorescence (DCFDA) (MES-SA/Dx5 cells [5]; [16]): 1.462± 0.39"
7.16 ± 0.03,1.61 ± 0.04,4.85 ± 0.02,Oc1c(CN2CCCCC2)cc(Cl)c2cccnc12 [Compound 5-Cl-Q-3],1300 ± 210,150 ± 10,1.61,8.40,1.672± 0.27,1.307± 0.51,1.861± 0.40,1.542± 0.35,1.812± 0.27,1.382± 0.67,2.075± 0.68,1.155± 0.25,1.975± 0.50,1.024± 0.19,1.954± 0.42,0.954± 0.14,1.005± 0.21,"Fold change in fluorescence (DCFDA) (MES-SA/Dx5 cells [5]; MES-SA/Dx5, 25 µM): 2.714± 0.84; Fold change in fluorescence (DCFDA) (MES-SA/Dx5 cells [5]; MES-SA/Dx5, 50 µM): 3.077± 1.29; Fold change in fluorescence (DCFDA) (MES-SA/Dx5 cells [5]; [16]): 1.086± 0.14"

# Source: PMC7796460, “Relation of Metal-Binding Property and Selective Toxicity of 8-Hydroxyquinoline Derived Mannich Bases Targeting Multidrug Resistant Cancer Cells” (Cancers, 2021)
